According to article PMC5410297, “Sepia ink oligopeptide induces apoptosis and growth inhibition in human lung cancer cells” (Oncotarget, 2017):

Experiments:
A549 cells = type: cell-based, human
Experimental: To quantitatively evaluate the corresponding cellular uptakes and average fluorescent intensity of linear SIO or stable SIO in human lung cancer cells, A549 cells were treated with PBS (as blank), FITC, stable SIO and linear SIO for 2 hours and then were analyzed by flow cytometry (Figure 5). […] Almost identical results were obtained from another lung cancer cell line H1299 (Figure 5D–5F). Therefore, the results were consistent with the cell fluorescent imaging analysis, which indicated stable SIO was much more appropriate to penetrate into cells.
Figure 5 Delivery efficiency of stable SIO or linear SIO in A549 or H1299 cells evaluated by flow cytometry (A and D) A549 or H1299 cells were treated with PBS (as blank), FITC (5 μM), linear SIO (5 μM) and stable SIO (5 μM) for 2 hours and the statistical count of cells were gathered by flow cytometry. […] Average fluorescence intensity presents the FITC intensity in the cells. […]
To test the delivery efficiency of stable SIO or linear SIO, A549 cells were cultured in the 6-well plates and were treated with PBS (as blank), FITC, stable FITC-SIO and linear FITC-SIO separately for […]. […] Samples were then analyzed by the FACSCalibur flow cytometer (Becton Dickinson). The cellular uptake and average fluorescent intensity were analyzed using Flowjo software.

A549 and H1299 cells = assay: Anti-proliferative effect, MTT and CCK-8 assays; type: cell-based, human; settings: A549 and H1299, MTT and CCK-8, 5 μM, n = 3
Experimental: Cell proliferation and apoptosis are crucial markers of cancer metastasis and invasive properties. To explore whether the stable SIO has much better effect on inhibiting the proliferation of A549 and H1299 cells, MTT and CCK-8 assays (Supplementary Figure 1) were conducted to investigate the anti-proliferative effect in PBS, FITC, stable SIO and linear SIO treated groups. […] It was worth noting that the anti-proliferative effect of SIO was in a time-dependent manner, which was significant at 48 hours (54%), and was peaked at 72 hours (70%).
Figure 6 The strong cell penetration of stable SIO in A549 or H1299 cells inhibited cell proliferation and induced cell apoptosis FITC-Annexin V and propidium iodide (PI) containing apoptosis assay on A549 or H1299 cells treated with PBS (as blank), FITC (5 μM), linear SIO (5 μM) and stable SIO (5 μM) for 72 hours. (A and D) Apoptotic cells stained with Annexin V/PI were measured by flow cytometry. (B and E) The statistic results of cell apoptosis by flow cytometry. […] Percentage cell viability of the treated cells is calculated relative to that of PBS treated cells (with arbitrarily assigned 100% viability). […]
Cell viability was measured using Cell Counting The plates were processed as described above, and the Kit-8 (CCK-8, Sigma, St. Louis, MO, USA) following the OD450 of the supernatant was measured. […]

delivery (permeability) efficiency: ratio of fluorescent cell counts to total cell counts (A549 cells): 5.82 ± 0.95%
SMILES: O=C1OC2(c3ccc(O)cc3Oc3cc(O)ccc32)c2ccc(N=C=S)cc21 [FITC]
inhibition of cell growth (in words) (A549 and H1299 cells): no obvious inhibition
